US10851067B2, “Kv7 channel activators compositions and methods of use” (Knopp Biosciences LLC, priority 2018, dated 2020)

Target: Kv7.2/7.3 (Homo sapiens, UniProt O43525+O43526)
Assay: Kv7.2/7.3 Activation Assay, QPatch single concentration screen
Assay type: cell-based
Set-up: host or cells: HEK cells, tetracycline-inducible expression; key: 1.2-2.9 (+); 3-3.9 (++); >4 (+++) fold increase over baseline; O represents open channel at holding potential
Settings: Kv7.2/Kv7.3 co-expressing HEK cells, compound concentration 3 μM, steady-state current at end of 2 s pulse to −30 mV
Experimental: Kv7.2/7.3 Activation Assay
The ability of compounds to potentiate K-currents in Kv7.2/7.3 containing HEK cells was assessed using planar patch-clamp on the QPatch automated screening platform.
The hKv7.2/7.3 cell line was obtained from Chantest (Cleveland, Ohio 44128) cat. #CT6147. These HEK cells will express the Kv7.2/7.3 ion channels when induced.
Cells were maintained in a media containing DMEM/F12; 50/50 (GIBCO cat. #11330), 10% Fetal Bovine Serum (FBS) (GIBCO cat. #26140), 100 units/mL Penicillin-Streptomycin (GIBCO cat. #15140), 0.005 mg/mL Blasticidin (INVIVOGEN cat. #ant-b1-1), 0.5 mg/mL Geneticin (GIBCO cat. #10131), 0.1 mg/mL Zeocin (GIBCO cat. #R25001). Cells used in the electrophysiology assay were maintained in a media without Blasticidin, Geneticin and Zeocin for 2 days and channel expression was induced by adding tetracycline (BIOLINE cat. #BIO-87030) at a final concentration of 1 mg/mL. Cells were grown in T-175 flask to ˜75% confluency. Currents were recorded 24 hours after channel induction.
Test compounds were prepared by performing serial dilutions on a Biomek NX^P (BECKMAN COULTER). Final dilutions were made in external recording solution with a final DMSO concentration of 0.1% DMSO. For single concentration screens each plate had 10 μM retigabine as a positive control and 0.1% DMSO as a negative control.
On the day of the experiment cells were washed with Hank's Balanced Salt Solution (HBBS) (GIBCO cat. #14175) and harvested with Tryple (GIBCO cat. #12604). Cells were then centrifuged at 2000 rpm for 5 minutes and resuspended in CHO-S-SFM (GIBCO cat. #12052) at ˜3×10^6 cells/mL. Cells were stirred for 30 minutes before experiments were started. External recording solution contained (in mM): NaCl (145), KCl (4), CaCl2 (2), MgCl2 (1), HEPES (10) and Glucose (10); pH was adjusted to 7.4 with NaOH and the osmolarity was adjusted to 300-305 mOsM with sucrose if necessary. Internal solution contained (in mM): KCl (125), KF (10), EGTA (5), Na2ATP (5), MgCl2 (3.2), HEPES (5); pH was adjusted to 7.2 with KOH and the osmolarity was adjusted to 298-302 mOsM with sucrose.
Potassium channel activity was measured on the QPatch HTX (Sophion Bioscience) using QPlates with 48-wells/plate. Each cell was taken as an independent experiment and only one compound was tested per well. Potassium channel activity was elicited by holding at −80 mV and stepping to −30 mV for 2 s followed by a 100 ms pulse to −120 mV.
Single Concentration Screen:
Baseline conditions were obtained by recording 5 sweeps in the external solution only, this was repeated for three applications of the external solution. The effect of test compounds on elicited current was then assessed by recording 5 sweeps in the presence of a 3 μM compound solution. The steady-state current at the end of the 2 s pulse to −30 mV was measured to determine the fold increase from baseline.

SMILES | Kv7.2/7.3 Activity: increase over baseline in current
CC(C)(C)CC(=O)Nc1nc2cc(F)cc(F)c2n1C1CCC1 [Example 357, N-(1-cyclobutyl-5,7-difluoro-1H-benzo[d]imidazol-2-yl)-3,3-dimethylbutanamide] | +++ (>4 (+++) fold increase over baseline)
CC(C)(C)CC(=O)Nc1nc2c(F)cc(C(C)(C)O)c(F)c2n1C1CCC1 [Example 438, N-(1-cyclobutyl-4,7-difluoro-6-(2-hydroxypropan-2-yl)-1H-benzo[d]imidazol-2-yl)-3,3-dimethylbutanamide] | O
CC(C)(C)n1c(NC(=O)CC(C)(C)C(F)(F)F)nc2c(F)cc(C#N)c(F)c21 [Example 349, N-(1-(tert-butyl)-6-cyano-4,7-difluoro-1H-benzo[d]imidazol-2-yl)-4,4,4-trifluoro-3,3-dimethylbutanamide] | ++ (3-3.9 (++))
CC(C)(C)CC(=O)Nc1nc2cc(F)ccc2n1C1CCC1 [Example 449, N-(1-cyclobutyl-5-fluoro-1H-benzo[d]imidazol-2-yl)-3,3-dimethylbutanamide] | ++ (3-3.9 (++))
CC(O)(CC(=O)Nc1nc2ccc(C#N)cc2n1C1(C)CCC1)c1ccc(F)cc1F (single isomer, unassigned) [Example 460, N-(6-cyano-1-(1-methylcyclobutyl)-1H-benzo[d]imidazol-2-yl)-3-(2,4-difluorophenyl)-3-hydroxybutanamide] | ++ (3-3.9 (++))
CC1(n2c(NC(=O)CC(O)(c3ccccc3)C(F)(F)F)nc3c(F)cc(OC(F)F)cc32)CCC1 (stereo not drawn) [Example 409, N-(6-(difluoromethoxy)-4-fluoro-1-(1-methylcyclobutyl)-1H-benzo[d]imidazol-2-yl)-4,4,4-trifluoro-3-hydroxy-3-phenylbutanamide] | + (1.2-2.9 (+))
CC(C)(CC(=O)Nc1nc2cc(F)c(OC(F)F)cc2n1C(C)(C)C)C1CC1 [Example 368, N-(1-(tert-butyl)-6-(difluoromethoxy)-5-fluoro-1H-benzo[d]imidazol-2-yl)-3-cyclopropyl-3-methylbutanamide] | + (1.2-2.9 (+))
CC(C)(C)CC(=O)Nc1nc2ccc(C(C)(C)O)c(F)c2n1C1(C)CCC1 [Example 481, N-(7-fluoro-6-(2-hydroxypropan-2-yl)-1-(1-methylcyclobutyl)-1H-benzo[d]imidazol-2-yl)-3,3-dimethylbutanamide] | O
CC(C)(CC(=O)Nc1nc2ccc(C#N)cc2n1C(C)(C)C)C1CC1 [Example 354, N-(1-(tert-butyl)-6-cyano-1H-benzo[d]imidazol-2-yl)-3-cyclopropyl-3-methylbutanamide] | ++ (3-3.9 (++))
CC(C)(C)CC(=O)Nc1nc2c(Cl)cc(C#N)cc2n1C1CCC1 [Example 377, N-(4-chloro-6-cyano-1-cyclobutyl-1H-benzo[d]imidazol-2-yl)-3,3-dimethylbutanamide] | +++ (>4 (+++) fold increase over baseline)
CC(C)(C)CC(=O)Nc1nc2ccc(C(C)(C)O)cc2n1C12CC(C1)C2 [Example 425, N-(1-(bicyclo[1.1.1]pentan-1-yl)-6-(2-hydroxypropan-2-yl)-1H-benzo[d]imidazol-2-yl)-3,3-dimethylbutanamide] | ++ (3-3.9 (++))
CC(C)(C)CC(=O)Nc1nc2c(F)cc(C#N)cc2n1C(C)(C)C [Example 420, N-(1-(tert-butyl)-6-cyano-4-fluoro-1H-benzo[d]imidazol-2-yl)-3,3-dimethylbutanamide] | + (1.2-2.9 (+))
C[C@H](C(=O)Nc1nc2c(F)cc(C(C)(C)O)cc2n1C1CCC1)C(C)(C)C [Example 443, (S)-N-(1-cyclobutyl-4-fluoro-6-(2-hydroxypropan-2-yl)-1H-benzo[d]imidazol-2-yl)-2,3,3-trimethylbutanamide] | ++ (3-3.9 (++))
CC(C)(O)c1ccc2nc(NC(=O)CC(C)(C)C(F)(F)F)n(C34CC(C3)C4)c2c1 [Example 404, N-(1-(bicyclo[1.1.1]pentan-1-yl)-6-(2-hydroxypropan-2-yl)-1H-benzo[d]imidazol-2-yl)-4,4,4-trifluoro-3,3-dimethylbutanamide] | + (1.2-2.9 (+))
CC(O)(CC(=O)Nc1nc2ccc(C#N)cc2n1CC1CC1)c1ccccc1 (single isomer, unassigned) [Example 344, N-(6-cyano-1-(cyclopropylmethyl)-1H-benzo[d]imidazol-2-yl)-3-hydroxy-3-phenylbutanamide] | + (1.2-2.9 (+))
CC(C)(C)n1c(NC(=O)CC(C)(C)C(F)(F)F)nc2c(F)cc(C#N)cc21 [Example 378, N-(1-(tert-butyl)-6-cyano-4-fluoro-1H-benzo[d]imidazol-2-yl)-4,4,4-trifluoro-3,3-dimethylbutanamide] | +++ (>4 (+++) fold increase over baseline)
CC(O)(CC(=O)Nc1nc2cccc(C#N)c2n1C1(C)CCC1)c1ccccc1 (single isomer, unassigned) [Example 375, N-(7-cyano-1-(1-methylcyclobutyl)-1H-benzo[d]imidazol-2-yl)-3-hydroxy-3-phenylbutanamide] | + (1.2-2.9 (+))
CC(C)(C)CC(=O)Nc1nc2c(F)cc(OCc3ccccc3)cc2n1C1CCC1 [Example 388, N-(6-(benzyloxy)-1-cyclobutyl-4-fluoro-1H-benzo[d]imidazol-2-yl)-3,3-dimethylbutanamide] | +++ (>4 (+++) fold increase over baseline)
CC(C)(CC(=O)Nc1nc2cccc(C#N)c2n1C1(C)CCC1)C1CC1 [Example 426, N-(7-cyano-1-(1-methylcyclobutyl)-1H-benzo[d]imidazol-2-yl)-3-cyclopropyl-3-methylbutanamide] | +++ (>4 (+++) fold increase over baseline)
CC(O)(CC(=O)Nc1nc2ccc(C#N)cc2n1CC(F)(F)F)c1ccccc1 (single isomer, unassigned) [Example 396, N-(6-cyano-1-(2,2,2-trifluoroethyl)-1H-benzo[d]imidazol-2-yl)-3-hydroxy-3-phenylbutanamide] | + (1.2-2.9 (+))
CC(O)(CC(=O)Nc1nc2cc(F)cc(C#N)c2n1C1(C)CCC1)c1ccccc1 (single isomer, unassigned) [Example 441, N-(7-cyano-5-fluoro-1-(1-methylcyclobutyl)-1H-benzo[d]imidazol-2-yl)-3-hydroxy-3-phenylbutanamide] | ++ (3-3.9 (++))
CC(O)(CC(=O)Nc1nc2cc(F)cc(C#N)c2n1C1(C)CCC1)c1ccccc1 (single isomer, unassigned) [Example 465, N-(7-cyano-5-fluoro-1-(1-methylcyclobutyl)-1H-benzo[d]imidazol-2-yl)-3-hydroxy-3-phenylbutanamide] | ++ (3-3.9 (++))
CC(C)(O)c1cc(F)c2nc(NC(=O)CC(C)(C)C(F)(F)F)n(C3CCC3)c2c1F [Example 385, N-(1-cyclobutyl-4,7-difluoro-6-(2-hydroxypropan-2-yl)-1H-benzo[d]imidazol-2-yl)-4,4,4-trifluoro-3,3-dimethylbutanamide] | O
CC(C)(CC(=O)Nc1nc2c(F)cc(C#N)cc2n1C(C)(C)C)C(F)F [Example 364, N-(1-(tert-butyl)-6-cyano-4-fluoro-1H-benzo[d]imidazol-2-yl)-4,4-difluoro-3,3-dimethylbutanamide] | ++ (3-3.9 (++))
